Laboratory results reported in US20080064754A1, “Amino ion releasing hydrogen bonded molecule” (priority 2006, published 2008).

Tests used:
laboratory mice = assay: LD-50 animal safety studies; assay type: in vivo; conditions: oral feeding, intravenous infusion and inhalation, up to 50 percent liquid or 100 percent powder
Protocol: Applicant has tested the final reaction product in LD-50 animal (laboratory mice) studies. These studies were conducted with oral feeding, intravenous infusion and inhalation. […] (Applicant's testing facility was unable to kill the mice with very high concentrations (up to 50 percent liquid or 100 percent powder) of Applicant's Tri-Amino.

microcirculation = assay type: in vivo
From the text: This acceleration of microcirculation has many positive benefits.

[1] = Hygroscopicity of the powder; assay type: physicochemical
From the text: Tri-Amino is a hygroscopic powder and as such is a valuable additive to moisturizing cosmetics.

[2] = test system: wounds, burns (of all degrees) and several types of chronic lesions; assay: Wound healing, anecdotal preliminary experiment; assay type: in vivo
inflammation = assay: Anti-inflammatory, anecdotal preliminary experiment; assay type: in vivo; conditions: all forms of delivery
[3] = cited from earlier work

**Q.** Which “toxicity in LD-50 studies” value (laboratory mice) does the source give for “2-amino 5-triaminoguanidovalericbenzoicdiacetate [Tri-Amino]” here?
**A.** Its value is “no toxicity what-so-ever”.

**Q.** What about the “toxic side effects on acceleration of microcirculation” value (microcirculation; in vivo) of the same molecule?
**A.** The value was “without toxic side effects”.

**Q.** And the vaso-dilating qualities (microcirculation; topically or internally, anecdotal, preliminary)?
**A.** Its vaso-dilating qualities is “exhibited vaso-dilating qualities”.

**Q.** And the hygroscopicity [1]?
**A.** Its hygroscopicity is “hygroscopic”.

**Q.** And the “healing of wounds, burns and chronic lesions” value [2]?
**A.** Its value is “ability to aid and accelerate the healing of wounds, burns (of all degrees) and several types of chronic lesions”.

**Q.** And the lesions healed [2]?
**A.** Its lesions healed is “radiation burns (third degree with complete suppression of scar formation), squamous cell carcinoma, basal cell carcinoma, psoriasis, venous stasis ulcers, decubitus ulcers (bed sores), deep surgical wounding (with suppression of scar formation), oral & genital herpes”.

**Q.** And the anti-inflammatory qualities (inflammation)?
**A.** The anti-inflammatory qualities was “shown anti-inflammatory qualities”.

**Q.** With `Nc1ccc(C(=O)O)cc1` [PABA, p-aminobenzoic acid] as the molecule, how does the solubility in water [3] read?
**A.** The solubility in water was “slightly soluble in water”.
